Results: patent US8795632B2, “Disease animal model for chronic pain” (Astellas Pharma Inc., priority 2008, dated 2014)

Legend:
[1] = tested on: dopamine, norepinephrine, serotonin, DOPAC, MHPG and 5-HIAA in the spinal cord, thalamus and prefrontal cortex; assay: Amounts of dopamine, norepinephrine, serotonin, DOPAC, MHPG and 5-HIAA in spinal cord, thalamus and prefrontal cortex after reserpine single administration (HPLC-ECD); type: in vivo, rat; settings: reserpine 3 mg/kg single s.c.
Experimental: Male Sprague-Dawley rats (7 weeks old, Japan SLC, Hamamatsu, Japan) were used as the animal.
A total of 72 rats were divided into 12 test schedules (collection of samples before the administration, 2, 4, 8 and 24 hours after the administration and 2, 3, 5, 7, 10, 14 and 21 days thereafter) and further divided each of them into a vehicle (0.5% acetic acid aqueous solution) administration group and a reserpine 3 mg/kg administration group, to 3 rats per group. As shown in Example 5, the vehicle or 3 mg/kg of reserpine was administered subcutaneously only once to each rat, and the brain and spinal cord were quickly collected after 2, 4, 8 or 24 hours or 2, 3, 5, 7, 10, 14 or 21 days of the administration. The thalamus and prefrontal cortex were separated from the brain on an ice-cold dish. Regarding the sampling before administration, samples were collected before beginning of the administration of the vehicle or reserpine. The collected samples were quickly frozen and stored at −80° C. until their use in the measurements. On the day of the measurement, tissues of respective samples were subjected to wet weight measurement, homogenized in 0.2 M perchloric acid/0.1 mM EDTA-2Na solution using an ultrasonic homogenizer. After centrifugation at 15,000 g and at 4° C. for 15 minutes, the supernatant was adjusted to pH 3.5 using sodium acetate and filtered using a filter. Amounts of dopamine, norepinephrine, serotonin, DOPAC, MHPG and 5-HIAA in these samples were measured using a high performance liquid chromatography (column: SC-50DS 3.0, 150 mm, Eicom Co., Ltd., Kyoto, Japan, mobile phase composition: 0.1 M sodium acetate buffer, 0.1 M citrate buffer, pH 3.5, 5 mg/l EDTA-2Na, 200 mg/l sodium octane sulfonic acid, 16% methanol) and an electrochemical detector (ECD-300, Eicom Co., Ltd., Kyoto, Japan). The measurement was carried out under conditions of flow rate 0.5 ml/min, applied voltage 750 mV and 25° C. Amounts of dopamine, norepinephrine, serotonin, DOPAC, MHPG and 5-HIAA in the samples were quantified by comparing sample peak areas of respective standards measured on the same day of the sample measurement.
All of the measured values were expressed as average value±standard error in the graphs, and unit of the measured values was set to ng/g tissue wet weight. Statistical difference of the measured values between the reserpine administration group and the vehicle administration group in each test schedule was carried out by the two-way analysis of variance and the Bonferroni method. Probability value (P) of less than 5% was judged as statistically significant (P<0.05 was expressed as * in the graphs).

[2] = tested on: Sprague-Dawley rats; assay: Skin pain sensation threshold value (von Frey filaments) after repeated administration of reserpine; type: in vivo, rat; settings: for time after reserpine final administration until which skin pain sensation threshold value was statistically significantly low vs solvent group: reserpine 1 mg/kg s.c. once a day for 3 days
Experimental: Measurement of muscle pressure pain threshold value was carried out in accordance with the method of Schafers et al. (Schafers M. et al., Pain, 104, 579-588, 2003). A pressure stimulus of gradually increasing to 250 g at the maximum was added to the rat right hind leg gastrocnemius muscle. […] The measurement was carried out 3 times at each point of time of the measurement, and the average was used as the measurement value. Measurement of the skin pain sensation threshold value was carried out in accordance with the method of Chaplan et al. (Chaplan et al., J. Neurosci. Methods, 53, 55-63, 1994). This was measured using a series of von Frey filaments having different diameters which may add a constant pressure. […] The von Frey filament was applied using the up and down method. That is, by firstly applying a filament of middle diameter, a filament having one rank smaller diameter was applied when the withdrawal reaction was observed or a filament having one rank larger diameter was applied when the withdrawal reaction was not observed. The skin pain sensation threshold value at each point of time of the measurement was calculated as a hind paw withdrawal reaction threshold value (g) using the calculation formula reported by Chaplan et al. (Chaplan et al., described above). Influences of reserpine upon the muscle pressure pain threshold value and skin pain sensation threshold value were examined by the following protocol. A total of 24 animals for each of male and female rats were used. After measuring muscle pressure pain threshold value and skin pain sensation threshold value before the reserpine treatment (base line), they were divided based on the reserpine administration doses into a solvent (0.5% acetic acid aqueous solution) group, a reserpine 0.1 mg/kg group, a 0.3 mg/kg group and a 1 mg/kg group (the number of animals per one group was 6). The solvent or reserpine was subcutaneously administered on the back of the rats of each group once a day for 3 days. All of the administration volume of the solvent or reserpine was set to 1 ml per 1 kg body weight of each animal. After final administration of the solvent or reserpine, the muscle pressure pain threshold value and skin pain sensation threshold value of each rat were measured 1, 3, 5, 7, 10, 14 and 21 days thereafter.
All of the measured values were expressed as average value±standard error. Statistical significance test of the measured values between the reserpine administration groups and the solvent administration group at each point of time was carried out by a two-way analysis of variance and the Bonferroni method. Probability value (P) of less than 5% was judged as statistically significant (P<0.05 was expressed as * in the graphs).

[3] = after 2, 4, 8 and 24 hours and 2, 3, 5, 7, 10, 14 and 21 days

Compound: COC(=O)[C@H]1[C@H]2C[C@@H]3c4[nH]c5cc(OC)ccc5c4CCN3C[C@H]2C[C@@H](OC(=O)c2cc(OC)c(OC)c(OC)c2)[C@@H]1OC [reserpine]
- amount of DOPAC in the prefrontal cortex ([1]; after 2, 3, 5, 7, 10 and 14 days): significantly reduced
- amount of 5-HIAA in the thalamus ([1]; after 2, 4, 8 and 24 hours): significantly increased
- amount of DOPAC in the spinal cord ([1]; after 2, 4, 8 and 24 hours): significantly increased
- amount of dopamine in the spinal cord [1, 3]: significantly reduced
- amount of dopamine in the thalamus [1, 3]: significantly reduced
- amount of norepinephrine in the prefrontal cortex [1, 3]: significantly reduced
- amount of norepinephrine in the spinal cord [1, 3]: significantly reduced
- amount of norepinephrine in the thalamus [1, 3]: significantly reduced
- amount of serotonin in the spinal cord [1, 3]: significantly reduced
- amount of dopamine in the prefrontal cortex ([1]; after 2, 4, 8 and 24 hours and 2, 3, 5, 7, 10 and 14 days): significantly reduced
- amount of serotonin in the prefrontal cortex ([1]; after 2, 4, 8 and 24 hours and 2, 3, 5, 7 and 10 days): significantly reduced
- amount of 5-HIAA in the spinal cord ([1]; after 4, 8, 24 hours and 2 days): significantly increased
- amount of serotonin in the thalamus ([1]; after 8 and 24 hours and 3, 5, 7 and 10 days): significantly reduced
- amount of MHPG in the prefrontal cortex ([1]; after 4 hours and 7 days): significantly reduced
- amount of MHPG in the spinal cord ([1]; after 4 hours and 7 days): significantly reduced
- amount of 5-HIAA in the prefrontal cortex ([1]; after 8 hours and 2, 3, 5, 7, 10, 14 and 21 days): significantly reduced
- amount of DOPAC in the spinal cord ([1]; after 2 days and later): did not significantly change
- amount of DOPAC in the thalamus ([1]; all time points): did not significantly change
- amount of MHPG in the thalamus ([1]; all time points): did not significantly change
- amount of 5-HIAA in the thalamus ([1]; in and after 2 days): no significant difference
- amount of 5-HIAA in the spinal cord ([1]; in and after 3 days): did not significantly change
- amount of DOPAC in the prefrontal cortex ([1]; within 24 hours after the administration): did not significantly change
- time after reserpine final administration until which skin pain sensation threshold value was statistically significantly low vs solvent group ([2]; female rats): 14 days
- skin pain sensation threshold value ([2]; male and female rats, reserpine 0.1, 0.3, 1 mg/kg s.c. once a day for 3 days, two-way analysis of variance vs solvent): significantly reduced
- time after reserpine final administration until which skin pain sensation threshold value was statistically significantly low vs solvent group ([2]; male rats): 21 days
- skin pain sensation threshold value ([2]; reserpine 1 mg/kg group, s.c. once a day for 3 days): markedly reduced
